From patent US9220928B2, “Plant extracts from Acronychia species and their use” (EcoBiotics Ltd, priority 2008, dated 2015)

System: Streptococcus salivarius K40
Assay: Antibacterial growth inhibition assay
Assay type: cell-based
Details: HPLC fractions and two pure compounds, further test; Table 9
Description: The bacteria used in these studies were: • Streptococcus salivarius […] • Bacillus subtilis All antibacterial assays were carried out in a laminar flow cabinet using the protocol described below. Growth or no-growth was assessed visually and by ELISA reader. […] This was then placed in the bacterial shaker at 37° C. at 210 rpm overnight. • 2) A blank reading was made on the spectrophotometer at 600 nm using […] of Columbia broth. A reading of 200 μL of the starter culture was then taken. • 3) In calculations, a final concentration of 0.005 was desired. The formula used for dilution of x mL starter was: x*A600=0.005*desired volume • 4) 90 uL of MeOH was added to each well of a 96 well flat bottomed plate. 10 μL of sample was added to the top well and diluted 1:10 down the plate. Alternatively the top rows were left empty of MeOH and 100 μL of sample was added and then diluted at 1:10 down the plate. • 5) The plates were then left to dry in a biological safety cabinet for 2-3 hours or until all solvent had evaporated off the plate. • 6) 100 μL of diluted bacterial culture was then added to each well of the plate. The plate was then placed in the bacterial incubator at 37° C. overnight. […] For quantitation, plates were read at 405 nm (ELISA). […]

Compound: CC(C)=CCC/C(C)=C/CC/C(C)=C/COc1ccc(CCC(=O)O)cc1 [EBC111, 3-(4-farnesyloxyphenyl)propionic acid]
- Amount of fraction giving 100% inhibition of growth of S. salivarius: 10Ag

Compound: COc1cc(CCC(=O)O)ccc1OC/C=C(\C)CC/C=C(\C)CCC=C(C)C [EBC125, 3-(4-farnesyloxy-3-methoxyphenyl)propionic acid]
- Amount of fraction giving 100% inhibition of growth of S. salivarius: 1 µL
